Assay results as given in patent US10099993B2, “Metabotropic glutamate receptor positive allosteric modulators (PAMS) and uses thereof” (Sanford-Burnham Medical Research Institute, priority 2014, dated 2018).

Assays:
mGlu1 = mGlu1 (Rattus norvegicus (Rat), UniProt P23385); test: mGlu1 calcium assay; type: cell-based; details: full agonist concentration-response ± 10 μM compound
mGlu5 = mGlu5 (Rattus norvegicus (Rat), UniProt P31424); test: mGlu5 calcium assay; type: cell-based; details: full agonist concentration-response ± 10 μM compound
mGlu3 [1] = target: T1, mGlu3 (Rattus norvegicus (Rat), UniProt P31422); test: mGlu3 GIRK thallium flux assay; details: for General activity at mGlu3: full agonist concentration-response ± 10 μM compound;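 as to all read-outs here: kinetic fluorescence slope read shortly after thallium plus agonist addition, scaled between vehicle and maximal agonist control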
[2] = In vivo PK in rats, p.o. administration; parameters: species or system rat; details: 20 mg/kg; for Tmax / Cmax: plasma
mGlu6 = mGlu6 (Rattus norvegicus (Rat), UniProt P35349); test: mGlu6 GIRK thallium flux assay; type: cell-based; details: full agonist concentration-response ± 10 μM compound
mGlu7 = mGlu7 (Rattus norvegicus (Rat), UniProt P35400); test: mGlu7 GIRK thallium flux assay; type: cell-based; details: full L-AP4 concentration-response ± 10 μM compound
mGlu4 = mGlu4 (Rattus norvegicus (Rat), UniProt P31423); test: mGlu4 GIRK thallium flux assay; type: cell-based; details: full agonist concentration-response ± 10 μM compound
mGlu8 = mGlu8 (Rattus norvegicus (Rat), UniProt P70579); test: mGlu8 GIRK thallium flux assay; type: cell-based; details: full agonist concentration-response ± 10 μM compound
[3] = In vivo PK in rats, i.v. administration; parameters: species or system rat; details: 2 mg/kg; for Cmax / Vd: rat, iv, plasma; for Vd: read-out: Vdss
[4] = tested on: nigrostriatal damage induced by 1-methyl-4-phenyl-1,2,3,6-tetrahydropyridine; details: acute or repeated injections 0.25 or 3 mg/kg, i.p., mice; cited from earlier work
reserpine-treated rat = details: cited from earlier work
[5] = tested on: food-maintained responding in rats; details: previously shown (Jin, X. et al. 2010); cited from earlier work
[6] = tested on: 6-OHDA lesioned nigrostriatal tract; details: cited from earlier work
[7] = tested on: GDNF mRNA and protein levels; details: 0.25-3 mg/kg, i.p.; cited from earlier work
SMI-32+ motor neurons = details: mixed cultures of spinal cord cells; cited from earlier work
spinal cord GDNF levels = details: 0.5, 1 or 5 mg/kg i.p., wild-type and mGlu2 knockout mice; cited from earlier work
[8] = tested on: cocaine-maintained responding in rats; details: previously shown (Jin, X. et al. 2010); cited from earlier work
[9] = tested on: cultured spinal cord astrocytes; details: wild-type and mGlu2 knockout mice, not mGlu3 knockout; cited from earlier work
R6/2 mice = details: cited from earlier work
SOD1G93A mice = details: continuous treatment 1 or 5 mg/kg/day; cited from earlier work
mGlu2 = mGlu2 (Rattus norvegicus (Rat), UniProt P31421); test: mGlu2 GIRK thallium flux assay; details: for General activity at mGlu2: full agonist concentration-response ± 10 μM compound;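 as to all read-outs here: Cell-based assay, rate of fluorescence rise right after thallium plus agonist addition read on a kinetic imaging plate reader, normalized to vehicle and maximal agonist control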
mGlu3 [10] = target: T1, mGlu3; test: TREx293 mGlu3 Gα15 calcium assay; type: cell-based; details: presence of an EC20 of glutamate, 20 ng/mL Tet for 20 h
Method: In order to generate a tetracycline (Tet)-inducible rat mGlu3 stable cell line to be used for a calcium mobilization assay, TREx293 cells (Invitrogen) were transfected with mouse Gα15-pCMV6 plasmid (Origene) using Fugene6 (Promega). The cells were selected for Gα15 expression with 1 mg/mL G418 in the presence of 10 μg/ml blasticidin to maintain Tet Repressor expression. Two weeks after the selection, polyclonal TREx293 Gα15 cells were obtained. The entire coding sequence of rat mGlu3 was amplified by polymerase chain reaction (PCR) and cloned into the Tet-inducible expression plasmid pcDNA5/TO (Invitrogen). Rat mGlu3-pcDNA5/TO was transfected into TREx293 Gα15 cells and selected for mGlu3 expression with 200 μg/ml hygromycin in the presence of G418 and blasticidin.
For mGlu3 the TREx tetracycline-inducible system (Invitrogen) was utilized. […] In the absence of Tet, no measurable expression of mGlu3 is detected either by Western blot (FIG. 3A) or by functional response to calcium mobilization (FIG. 3B). […] Data were analyzed using nonlinear regression. Data were obtained from three separate experiments performed in triplicate, normalized to the response to 100 μM glutamate in each experiment, and are expressed as the mean±SEM.

Sequence of mGlu1 (P23385 19-1199): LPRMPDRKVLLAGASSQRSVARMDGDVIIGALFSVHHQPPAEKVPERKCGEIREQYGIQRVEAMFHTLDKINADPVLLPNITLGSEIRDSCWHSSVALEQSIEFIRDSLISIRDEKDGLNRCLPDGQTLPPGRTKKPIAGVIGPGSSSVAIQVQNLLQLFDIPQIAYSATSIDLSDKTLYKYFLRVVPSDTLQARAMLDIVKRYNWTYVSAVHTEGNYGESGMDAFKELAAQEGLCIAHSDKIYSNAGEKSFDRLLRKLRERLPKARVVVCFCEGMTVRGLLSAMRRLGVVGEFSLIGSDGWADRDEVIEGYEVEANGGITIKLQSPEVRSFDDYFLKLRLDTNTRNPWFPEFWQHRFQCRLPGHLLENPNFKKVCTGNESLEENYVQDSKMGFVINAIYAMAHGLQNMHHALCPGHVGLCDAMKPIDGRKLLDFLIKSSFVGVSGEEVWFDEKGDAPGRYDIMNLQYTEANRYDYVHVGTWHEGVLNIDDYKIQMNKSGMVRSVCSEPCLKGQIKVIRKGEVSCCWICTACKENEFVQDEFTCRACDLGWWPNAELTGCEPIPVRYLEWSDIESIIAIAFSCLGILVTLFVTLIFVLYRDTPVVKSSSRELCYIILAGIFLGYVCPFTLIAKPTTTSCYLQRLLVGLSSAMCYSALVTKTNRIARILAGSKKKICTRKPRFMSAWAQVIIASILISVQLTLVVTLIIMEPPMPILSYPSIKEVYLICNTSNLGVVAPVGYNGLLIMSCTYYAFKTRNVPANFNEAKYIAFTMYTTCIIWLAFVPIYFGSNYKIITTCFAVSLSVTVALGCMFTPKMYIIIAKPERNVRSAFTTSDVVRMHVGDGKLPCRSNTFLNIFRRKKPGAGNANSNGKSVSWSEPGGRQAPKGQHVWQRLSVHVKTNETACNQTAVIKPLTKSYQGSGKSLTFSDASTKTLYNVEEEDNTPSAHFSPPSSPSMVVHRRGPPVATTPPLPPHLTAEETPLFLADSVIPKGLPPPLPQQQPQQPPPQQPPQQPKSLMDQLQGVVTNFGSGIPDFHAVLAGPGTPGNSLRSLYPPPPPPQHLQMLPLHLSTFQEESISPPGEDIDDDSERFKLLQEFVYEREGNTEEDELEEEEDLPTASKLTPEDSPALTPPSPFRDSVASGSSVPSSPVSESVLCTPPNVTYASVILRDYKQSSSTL
Sequence of mGlu2 (P31421 19-872): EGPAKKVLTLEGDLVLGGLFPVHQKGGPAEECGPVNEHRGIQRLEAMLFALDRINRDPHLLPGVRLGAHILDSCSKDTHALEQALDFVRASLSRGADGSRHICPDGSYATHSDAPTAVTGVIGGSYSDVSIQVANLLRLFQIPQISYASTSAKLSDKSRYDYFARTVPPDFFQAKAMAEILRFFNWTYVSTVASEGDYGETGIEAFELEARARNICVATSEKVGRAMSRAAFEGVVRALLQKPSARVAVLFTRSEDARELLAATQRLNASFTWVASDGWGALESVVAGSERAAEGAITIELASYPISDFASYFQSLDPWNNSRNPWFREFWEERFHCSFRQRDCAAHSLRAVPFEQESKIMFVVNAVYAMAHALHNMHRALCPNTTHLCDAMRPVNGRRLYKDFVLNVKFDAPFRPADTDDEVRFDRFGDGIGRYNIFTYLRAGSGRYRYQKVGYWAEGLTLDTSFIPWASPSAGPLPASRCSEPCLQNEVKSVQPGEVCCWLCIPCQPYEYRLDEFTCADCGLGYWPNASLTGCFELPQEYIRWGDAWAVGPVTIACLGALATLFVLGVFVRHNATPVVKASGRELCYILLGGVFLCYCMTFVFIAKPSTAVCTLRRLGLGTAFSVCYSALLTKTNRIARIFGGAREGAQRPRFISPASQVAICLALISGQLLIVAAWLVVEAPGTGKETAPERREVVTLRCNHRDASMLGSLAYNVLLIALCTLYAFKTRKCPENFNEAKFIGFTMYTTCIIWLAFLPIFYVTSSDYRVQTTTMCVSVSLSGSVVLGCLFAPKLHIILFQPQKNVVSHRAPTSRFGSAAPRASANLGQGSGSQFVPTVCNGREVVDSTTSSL
Sequence of mGlu6 (P35349 24-871): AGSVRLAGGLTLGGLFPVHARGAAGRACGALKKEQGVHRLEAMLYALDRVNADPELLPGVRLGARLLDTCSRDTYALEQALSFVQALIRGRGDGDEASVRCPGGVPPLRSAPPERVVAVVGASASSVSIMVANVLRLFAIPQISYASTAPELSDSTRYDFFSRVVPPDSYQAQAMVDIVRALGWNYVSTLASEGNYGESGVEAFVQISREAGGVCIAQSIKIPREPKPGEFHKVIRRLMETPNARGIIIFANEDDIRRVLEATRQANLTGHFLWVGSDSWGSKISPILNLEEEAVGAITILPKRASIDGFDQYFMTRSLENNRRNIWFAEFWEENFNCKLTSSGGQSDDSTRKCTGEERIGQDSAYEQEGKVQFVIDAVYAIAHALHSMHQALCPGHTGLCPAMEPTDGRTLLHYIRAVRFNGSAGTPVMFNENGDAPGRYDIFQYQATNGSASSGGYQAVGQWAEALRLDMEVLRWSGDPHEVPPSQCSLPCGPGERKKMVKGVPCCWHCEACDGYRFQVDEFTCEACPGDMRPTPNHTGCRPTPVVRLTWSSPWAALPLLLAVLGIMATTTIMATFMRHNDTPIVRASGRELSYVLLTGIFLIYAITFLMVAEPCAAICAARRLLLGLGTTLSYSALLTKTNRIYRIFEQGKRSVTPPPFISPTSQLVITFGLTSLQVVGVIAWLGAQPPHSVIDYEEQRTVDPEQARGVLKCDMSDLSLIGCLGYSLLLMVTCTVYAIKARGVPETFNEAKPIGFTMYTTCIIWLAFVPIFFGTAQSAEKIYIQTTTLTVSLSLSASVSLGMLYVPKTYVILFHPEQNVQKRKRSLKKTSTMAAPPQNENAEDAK
Sequence of mGlu7 (P35400 35-915): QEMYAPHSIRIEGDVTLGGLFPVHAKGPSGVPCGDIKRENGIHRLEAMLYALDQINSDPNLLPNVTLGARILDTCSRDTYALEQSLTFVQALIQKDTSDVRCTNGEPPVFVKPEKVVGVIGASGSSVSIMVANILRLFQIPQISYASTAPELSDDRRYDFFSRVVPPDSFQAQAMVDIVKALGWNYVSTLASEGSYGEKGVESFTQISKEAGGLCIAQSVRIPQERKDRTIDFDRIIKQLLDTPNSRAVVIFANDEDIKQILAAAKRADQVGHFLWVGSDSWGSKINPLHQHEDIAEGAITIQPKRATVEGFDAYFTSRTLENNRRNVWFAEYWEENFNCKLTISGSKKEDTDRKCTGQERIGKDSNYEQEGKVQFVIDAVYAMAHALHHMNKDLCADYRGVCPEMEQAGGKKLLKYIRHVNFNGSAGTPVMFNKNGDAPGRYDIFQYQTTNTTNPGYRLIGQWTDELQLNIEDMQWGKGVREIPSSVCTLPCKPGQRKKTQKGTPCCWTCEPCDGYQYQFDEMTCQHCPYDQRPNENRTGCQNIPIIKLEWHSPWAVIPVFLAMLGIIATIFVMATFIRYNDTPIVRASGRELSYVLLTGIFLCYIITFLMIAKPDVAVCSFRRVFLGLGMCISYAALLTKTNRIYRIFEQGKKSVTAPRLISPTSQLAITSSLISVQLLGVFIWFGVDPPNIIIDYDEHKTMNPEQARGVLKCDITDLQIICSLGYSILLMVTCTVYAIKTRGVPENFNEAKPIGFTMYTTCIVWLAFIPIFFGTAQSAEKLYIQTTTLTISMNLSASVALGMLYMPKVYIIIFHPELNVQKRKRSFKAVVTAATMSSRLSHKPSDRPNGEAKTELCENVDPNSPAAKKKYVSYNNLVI
T1 sequence (P31422 23-879): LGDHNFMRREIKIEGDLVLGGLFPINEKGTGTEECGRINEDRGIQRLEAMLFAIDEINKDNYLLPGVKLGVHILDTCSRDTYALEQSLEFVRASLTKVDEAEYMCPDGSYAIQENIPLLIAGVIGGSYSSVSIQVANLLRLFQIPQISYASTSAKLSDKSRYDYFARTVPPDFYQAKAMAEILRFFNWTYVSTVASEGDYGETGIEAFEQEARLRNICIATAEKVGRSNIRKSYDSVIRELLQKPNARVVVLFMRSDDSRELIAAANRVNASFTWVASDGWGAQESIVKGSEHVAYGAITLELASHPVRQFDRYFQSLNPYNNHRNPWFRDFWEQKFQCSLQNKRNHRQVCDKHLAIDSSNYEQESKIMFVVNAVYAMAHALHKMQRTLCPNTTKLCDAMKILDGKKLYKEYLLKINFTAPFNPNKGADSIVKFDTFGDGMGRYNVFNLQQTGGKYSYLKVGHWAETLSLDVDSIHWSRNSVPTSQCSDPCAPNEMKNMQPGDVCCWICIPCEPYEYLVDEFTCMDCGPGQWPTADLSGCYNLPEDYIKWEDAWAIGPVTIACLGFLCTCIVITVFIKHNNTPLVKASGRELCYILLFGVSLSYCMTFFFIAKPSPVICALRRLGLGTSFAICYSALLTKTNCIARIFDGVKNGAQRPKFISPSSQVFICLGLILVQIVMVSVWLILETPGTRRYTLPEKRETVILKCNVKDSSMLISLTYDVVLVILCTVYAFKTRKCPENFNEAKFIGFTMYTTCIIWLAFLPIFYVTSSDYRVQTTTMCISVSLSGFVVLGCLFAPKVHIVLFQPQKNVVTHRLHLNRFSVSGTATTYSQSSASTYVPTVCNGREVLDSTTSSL

Cc1c(OCCCCOc2ccc(C(=O)O)cc2)ccc(C(=O)CC(C)C)c1O [Compound 20, 4-(4-(3-Hydroxy-2-methyl-4-(3-methylbutanoyl)phenoxy)butoxy)benzoic acid]
General activity at mGlu1 (mGlu1): inactive^b
General activity at mGlu5 (mGlu5): inactive^b
General activity at mGlu3 (mGlu3 [1]): PAM
AUC(0→t) [2]: 544.8 ± 75.4 (μmol/L) min
F, oral bioavailability [2]: 23.5%
Plasma ([2]; harvested at or near the Tmax): 5.29 ± 1.98 µM
Kp ([2]; rat, brain and plasma, po, read-out: Brain:Plasma ratio): 0.2 ± 0.03
Tmax ([2]; rat, po): 2.25 h
Cmax ([2]; rat, po): 2570 ± 450 nM
General activity at mGlu6 (mGlu6): inactive^b
General activity at mGlu7 (mGlu7): inactive^b
General activity at mGlu4 (mGlu4): inactive^b
General activity at mGlu8 (mGlu8): inactive^b
AUC(0→t) [3]: 231.7 ± 42.12 (μmol/L)*min
Cmax [3]: 5 ± 0.6 µM
Vd [3]: 0.81 ± 0.14 L/kg

N[C@@]1(C(=O)O)CO[C@H]2[C@H](C(=O)O)[C@H]21 [LY379268]
protection against MPTP-induced nigrostriatal damage [4]: highly protective against nigrostriatal damage
locomotor activity in reserpine-treated rat (reserpine-treated rat; intracerebroventricular 1, 5, 10, 20 nmol/2 μl): dose-dependent increase in locomotor activity
reserpine-induced akinesia (reserpine-treated rat; systemic 0.1, 1, 10 mg/kg ip): did not reverse reserpine-induced akinesia
food-maintained responding [5]: decrease both cocaine- and food-maintained responding
protection against nigral infusion of 6-OHDA ([6]; 10 mg/kg/day ip for 7 days): provided some protection against nigral infusion of 6-OHDA
protection against striatal infusion of 6-OHDA ([6]; 10 mg/kg/day ip for 21 days): significant protection in the striatum
rotational behaviour 1 month after unilateral 6-OHDA lesioning ([6]; systemic 0.1, 1, 10 mg/kg ip): failed to effect rotational behaviour
GDNF mRNA and protein levels in the mouse brain [7]: increased
protection of SMI-32+ motor neurons against excitotoxic death (SMI-32+ motor neurons): protected
spinal cord GDNF levels (spinal cord GDNF levels): enhanced spinal cord GDNF levels
cocaine-maintained responding [8]: decrease both cocaine- and food-maintained responding
GDNF levels in cultured spinal cord astrocytes [9]: enhanced GDNF levels
striatal neuron loss (R6/2 mice; R6/2 mice, 20 mg/kg s.c. daily, at 10 weeks): rescue of a 15-20% striatal neuron loss
phenotype in R6/2 mice (R6/2 mice; daily s.c. MTD 20 mg/kg beginning at 4 weeks): dramatically improves the phenotype
neurological disability in SOD1G93A mice (SOD1G93A mice): beneficial effect on neurological disability

Cc1c(OCCCCOc2cccc(C(=O)O)c2)ccc(C(=O)CC2CCCC2)c1O [Compound 25, 3-(4-(4-(2-Cyclopentylacetyl)-3-hydroxy-2-methylphenoxy)butoxy)benzoic acid]
General activity at mGlu1 (mGlu1): inactive^b
General activity at mGlu5 (mGlu5): inactive^b
General activity at mGlu3 (mGlu3 [1]): PAM
Emin, minimal response of the concentration-response of agonist (mGlu3 [1]; mGlu3, 10 μM compound): Emin = 6%
General activity at mGlu6 (mGlu6): inactive^b
General activity at mGlu7 (mGlu7): inactive^b
General activity at mGlu4 (mGlu4): inactive^b
General activity at mGlu2 (mGlu2): Ago-PAM
Emin, minimal response of the concentration-response of agonist (mGlu2; mGlu2, 10 μM compound): Emin = 45%
General activity at mGlu8 (mGlu8): inactive^b

Cc1c(OCc2cccc(-c3ccc(C(=O)O)cc3)c2)cc2c(c1C)C(=O)C(C1CCCC1)C2 (stereo not shown) [BINA]
food-maintained responding [5]: no effect on food-maintained responding
cocaine-maintained responding [8]: decreased only cocaine-maintained responding
activity in TREx293 mGlu3 Gα15 calcium assay (mGlu3 [10]): inactive

CCCC(=O)c1ccc(OCCCCOc2ccc(C(=O)O)cc2OC)c(C)c1O [compound 67]
General activity at mGlu1 (mGlu1): Antagonist
General activity at mGlu5 (mGlu5): inactive^b
General activity at mGlu6 (mGlu6): inactive^b
General activity at mGlu7 (mGlu7): inactive^b
General activity at mGlu4 (mGlu4): Antagonist
General activity at mGlu8 (mGlu8): inactive^b

Cc1c(OCCCCOc2ccc(C(=O)O)c(Cl)c2)ccc(C(=O)CC2CCCC2)c1O [Compound 33, 2-Chloro-4-(4-(4-(2-cyclopentylacetyl)-3-hydroxy-2-methylphenoxy)butoxy)benzoic acid]
General activity at mGlu1 (mGlu1): inactive^b
General activity at mGlu5 (mGlu5): inactive^b
General activity at mGlu6 (mGlu6): inactive^b
General activity at mGlu7 (mGlu7): inactive^b
General activity at mGlu4 (mGlu4): inactive^b
General activity at mGlu2 (mGlu2): Ago-PAM
General activity at mGlu8 (mGlu8): inactive^b

COc1ccc(C(=O)O)cc1OCCCCOc1ccc(C(=O)CC(C)C)c(O)c1C [Compound 50, 3-{4-[3-Hydroxy-2-methyl-4-(3-methylbutanoyl)phenoxy]butoxy}-4-methoxybenzoic acid]
AUC(0→t) [2]: 466.2 ± 105.2 (μmol/L) min
F, oral bioavailability [2]: 60.4%
Tmax ([2]; rat, po): 1.6 h
Cmax ([2]; rat, po): 1050 nM
AUC(0→t) [3]: 77.2 ± 8.0 (μmol/L)*min
Cmax [3]: 2.15 ± 0.14 µM
Vd [3]: 2.87 ± 0.6 L/kg
